The values below come from the supplement of paper PMC10307832.

For one experiment, the system named is LK-2. Briefly: relative viability (nuclei count vs DMSO), 5 days (fraction); higher = more cells survive. As to conditions: first compound 0.6325 µM. The method in brief: (§1)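 A single step with final 0.05% Triton X-100, 1% formaldehyde and 1 ug/ml Hoechst fixed the cells and stained nuclei 5 days after treatment. Lung cancer cell lines in 1536-well plates had been treated by pin tool the day after seeding with one drug alone or a fixed anchor-drug dose plus five library-drug doses (not always all listed) in √10 steps, and nuclei were counted on 4× images. Relative viability is the ratio of nuclei in treated wells to nuclei in vehicle wells, taken as the median of duplicate plates.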
Consider `COCC1(CO)C(=O)C2CCN1CC2` (stereo unspecified) [PRIMA-1MET] + COc1cc2c(Oc3ccc(NC(=O)C4(C(=O)Nc5ccc(F)cc5)CC4)cc3F)ccnc2cc1OCCCN1CCOCC1 [Foretinib] (partner 0.25 µM), for which the relative viability was 1.16.
The compound `COCC1(CO)C(=O)C2CCN1CC2` (stereo unspecified) [PRIMA-1MET] + NC(=O)Nc1cc(-c2cccc(F)c2)sc1C(=O)N[C@H]1CCCNC1 [AZD7762] (partner 0.2 µM) had a relative viability of 0.405.
With `COCC1(CO)C(=O)C2CCN1CC2` (stereo unspecified) [PRIMA-1MET] + Nc1nc2[nH]cc(CCc3ccc(C(=O)N[C@@H](CCC(=O)O)C(=O)O)cc3)c2c(=O)[nH]1 [Pemetrexed] (partner 0.2 µM), the relative viability was 0.0831.
On to `COCC1(CO)C(=O)C2CCN1CC2` (stereo unspecified) [PRIMA-1MET] + CC(=O)Nc1cccc(-n2c(=O)n(C3CC3)c(=O)c3c(Nc4ccc(I)cc4F)n(C)c(=O)c(C)c32)c1 [Trametinib] (partner 0.02 µM), for which the relative viability was 0.766.
The same measure, in the same setting: under `COCC1(CO)C(=O)C2CCN1CC2` (stereo unspecified) [PRIMA-1MET] + Nc1ncn([C@H]2C[C@H](O)[C@@H](CO)O2)c(=O)n1 [Decitabine] (partner 2 µM) stands 0.158.

Still in this experiment, the particulars now being: first compound 2 µM.
`COCC1(CO)C(=O)C2CCN1CC2` (stereo unspecified) [PRIMA-1MET] + COc1cc2c(Oc3ccc(NC(=O)C4(C(=O)Nc5ccc(F)cc5)CC4)cc3F)ccnc2cc1OCCCN1CCOCC1 [Foretinib] (partner 0.25 µM) had a relative viability of 0.567.
With `COCC1(CO)C(=O)C2CCN1CC2` (stereo unspecified) [PRIMA-1MET] + NC(=O)Nc1cc(-c2cccc(F)c2)sc1C(=O)N[C@H]1CCCNC1 [AZD7762] (partner 0.2 µM), the relative viability was determined as 0.182.
In turn, `COCC1(CO)C(=O)C2CCN1CC2` (stereo unspecified) [PRIMA-1MET] + Nc1nc2[nH]cc(CCc3ccc(C(=O)N[C@@H](CCC(=O)O)C(=O)O)cc3)c2c(=O)[nH]1 [Pemetrexed] (partner 0.2 µM) gave a relative viability of 0.221.
Turning to `COCC1(CO)C(=O)C2CCN1CC2` (stereo unspecified) [PRIMA-1MET] + CC(=O)Nc1cccc(-n2c(=O)n(C3CC3)c(=O)c3c(Nc4ccc(I)cc4F)n(C)c(=O)c(C)c32)c1 [Trametinib] (partner 0.02 µM), the relative viability turned out to be 0.357.
On the same count and under the same terms, then `COCC1(CO)C(=O)C2CCN1CC2` (stereo unspecified) [PRIMA-1MET] + Nc1ncn([C@H]2C[C@H](O)[C@@H](CO)O2)c(=O)n1 [Decitabine] (partner 2 µM), with 0.247.

Staying with this experiment, now noted: first compound 6.325 µM.
For `COCC1(CO)C(=O)C2CCN1CC2` (stereo unspecified) [PRIMA-1MET] + COc1cc2c(Oc3ccc(NC(=O)C4(C(=O)Nc5ccc(F)cc5)CC4)cc3F)ccnc2cc1OCCCN1CCOCC1 [Foretinib] (partner 0.25 µM), the relative viability was 0.752.
The compound `COCC1(CO)C(=O)C2CCN1CC2` (stereo unspecified) [PRIMA-1MET] + NC(=O)Nc1cc(-c2cccc(F)c2)sc1C(=O)N[C@H]1CCCNC1 [AZD7762] (partner 0.2 µM) yielded a relative viability of 0.124.
Compound `COCC1(CO)C(=O)C2CCN1CC2` (stereo unspecified) [PRIMA-1MET] + Nc1nc2[nH]cc(CCc3ccc(C(=O)N[C@@H](CCC(=O)O)C(=O)O)cc3)c2c(=O)[nH]1 [Pemetrexed] (partner 0.2 µM) returned a relative viability of 0.125.
In turn, `COCC1(CO)C(=O)C2CCN1CC2` (stereo unspecified) [PRIMA-1MET] + CC(=O)Nc1cccc(-n2c(=O)n(C3CC3)c(=O)c3c(Nc4ccc(I)cc4F)n(C)c(=O)c(C)c32)c1 [Trametinib] (partner 0.02 µM) had a relative viability of 0.455.
On the same count and under the same terms, under `COCC1(CO)C(=O)C2CCN1CC2` (stereo unspecified) [PRIMA-1MET] + Nc1ncn([C@H]2C[C@H](O)[C@@H](CO)O2)c(=O)n1 [Decitabine] (partner 2 µM) stands 0.182.

The same experiment, now with this note: first compound 20 µM.
`COCC1(CO)C(=O)C2CCN1CC2` (stereo unspecified) [PRIMA-1MET] + COc1cc2c(Oc3ccc(NC(=O)C4(C(=O)Nc5ccc(F)cc5)CC4)cc3F)ccnc2cc1OCCCN1CCOCC1 [Foretinib] (partner 0.25 µM) gave a relative viability of 0.147.
On to `COCC1(CO)C(=O)C2CCN1CC2` (stereo unspecified) [PRIMA-1MET] + NC(=O)Nc1cc(-c2cccc(F)c2)sc1C(=O)N[C@H]1CCCNC1 [AZD7762] (partner 0.2 µM), for which the relative viability was found to be 0.0604.
The same measure, in the same setting: under `COCC1(CO)C(=O)C2CCN1CC2` (stereo unspecified) [PRIMA-1MET] + Nc1nc2[nH]cc(CCc3ccc(C(=O)N[C@@H](CCC(=O)O)C(=O)O)cc3)c2c(=O)[nH]1 [Pemetrexed] (partner 0.2 µM) stands 0.0594; under `COCC1(CO)C(=O)C2CCN1CC2` (stereo unspecified) [PRIMA-1MET] + CC(=O)Nc1cccc(-n2c(=O)n(C3CC3)c(=O)c3c(Nc4ccc(I)cc4F)n(C)c(=O)c(C)c32)c1 [Trametinib] (partner 0.02 µM), 0.199; under `COCC1(CO)C(=O)C2CCN1CC2` (stereo unspecified) [PRIMA-1MET] + Nc1ncn([C@H]2C[C@H](O)[C@@H](CO)O2)c(=O)n1 [Decitabine] (partner 2 µM), 0.0846.

The test system of another experiment is RERF-LC-KJ. The experiment is described as above. As to conditions: first compound 0.2 µM. A digest of the protocol: as §1
`COCC1(CO)C(=O)C2CCN1CC2` (stereo unspecified) [PRIMA-1MET] + COc1cc2c(Oc3ccc(NC(=O)C4(C(=O)Nc5ccc(F)cc5)CC4)cc3F)ccnc2cc1OCCCN1CCOCC1 [Foretinib] (partner 0.25 µM) yielded a relative viability of 0.872.
`COCC1(CO)C(=O)C2CCN1CC2` (stereo unspecified) [PRIMA-1MET] + NC(=O)Nc1cc(-c2cccc(F)c2)sc1C(=O)N[C@H]1CCCNC1 [AZD7762] (partner 0.2 µM) displayed a relative viability of 1.11.
The same measure, in the same setting: under `COCC1(CO)C(=O)C2CCN1CC2` (stereo unspecified) [PRIMA-1MET] + Nc1nc2[nH]cc(CCc3ccc(C(=O)N[C@@H](CCC(=O)O)C(=O)O)cc3)c2c(=O)[nH]1 [Pemetrexed] (partner 0.2 µM) stands 0.49.
Compound `COCC1(CO)C(=O)C2CCN1CC2` (stereo unspecified) [PRIMA-1MET] + CC(=O)Nc1cccc(-n2c(=O)n(C3CC3)c(=O)c3c(Nc4ccc(I)cc4F)n(C)c(=O)c(C)c32)c1 [Trametinib] (partner 0.02 µM) yielded a relative viability of 0.858.
On the same count and under the same terms, under `COCC1(CO)C(=O)C2CCN1CC2` (stereo unspecified) [PRIMA-1MET] + Nc1ncn([C@H]2C[C@H](O)[C@@H](CO)O2)c(=O)n1 [Decitabine] (partner 2 µM) stands 0.753.

The same experiment, now with this note: first compound 0.6325 µM.
`COCC1(CO)C(=O)C2CCN1CC2` (stereo unspecified) [PRIMA-1MET] + COc1cc2c(Oc3ccc(NC(=O)C4(C(=O)Nc5ccc(F)cc5)CC4)cc3F)ccnc2cc1OCCCN1CCOCC1 [Foretinib] (partner 0.25 µM) gave a relative viability of 0.878.
As to `COCC1(CO)C(=O)C2CCN1CC2` (stereo unspecified) [PRIMA-1MET] + NC(=O)Nc1cc(-c2cccc(F)c2)sc1C(=O)N[C@H]1CCCNC1 [AZD7762] (partner 0.2 µM), the relative viability came out at 0.875.
Compound `COCC1(CO)C(=O)C2CCN1CC2` (stereo unspecified) [PRIMA-1MET] + Nc1nc2[nH]cc(CCc3ccc(C(=O)N[C@@H](CCC(=O)O)C(=O)O)cc3)c2c(=O)[nH]1 [Pemetrexed] (partner 0.2 µM) yielded a relative viability of 0.484.
With `COCC1(CO)C(=O)C2CCN1CC2` (stereo unspecified) [PRIMA-1MET] + CC(=O)Nc1cccc(-n2c(=O)n(C3CC3)c(=O)c3c(Nc4ccc(I)cc4F)n(C)c(=O)c(C)c32)c1 [Trametinib] (partner 0.02 µM), the relative viability worked out at 0.849.
`COCC1(CO)C(=O)C2CCN1CC2` (stereo unspecified) [PRIMA-1MET] + Nc1ncn([C@H]2C[C@H](O)[C@@H](CO)O2)c(=O)n1 [Decitabine] (partner 2 µM): the relative viability was 0.617.

The experiment is the same for the next values; noted with them: first compound 2 µM.
With `COCC1(CO)C(=O)C2CCN1CC2` (stereo unspecified) [PRIMA-1MET] + COc1cc2c(Oc3ccc(NC(=O)C4(C(=O)Nc5ccc(F)cc5)CC4)cc3F)ccnc2cc1OCCCN1CCOCC1 [Foretinib] (partner 0.25 µM), the relative viability came out at 0.922.
